Starred links: 1 amine or outer side, 2 acyl side, 3 side chain; linkers in the order of their positions; H or OH if unused. Positions of bridges follow the written chain, without caps; N, C: chain ends. Non-standard residues stand in square brackets, D forms with d. Residues, ends and D or L forms follow the SMILES beside them. oXylylene = c1ccc(C[*:2])c(C[*:1])c1; Pra = C#CC[C@H](N)C(=O)O
What was measured:
Type in all cases: in vitro ADME
[1] = Microplate fluorogenic CuAAC liposomal permeation assay (CF-N3-loaded SUVs); details: for Permeation in liposomal assay: reaction with liposomal CF-N3 (in words): real-time fluorogenic CuAAC
Description: DOPC or DOPG (10 mg/mL, 500 μL) were pipetted into a scintillation vial (20 mL), or DOPC (10 mg/mL, 400 μL) and POPC (10 mg/mL, 100 μL) were pipetted into a scintillation vial (20 mL). Samples were dried under argon then evaporatively dried in a vacuum desiccator (16 h). Degassed PBS buffer was combined with CF-N3 probe (1, 4, or 20 μM final) and ascorbic acid (AA, 10 mM). Lipid film was resuspended using degassed probe/AA/PBS buffer solution (1 mL), and the vial was incubated on a hot plate (15 min, 37 °C) with gentle vortexing (every 5 min). Lipid suspension was sonicated (1 min, Branson 3510 DTH ultrasonic cleaner) followed by rest (1 min), repeating 9 additional times. Liposomes were generated by extrusion (11 passages, 100 nm polycarbonate membrane, Mini-Extruder, Avanti Polar Lipids). Liposome solution was loaded into dialysis cassettes (10K MWCO, 3 mL Slide-A-Lyzer) and incubated in PBS buffer (1 L, 16 h, 4 °C). Liposome size distributions and stability were analyzed by dynamic light scattering (DLS, Zetasizer Nano ZS, Malvern Panalytical, United Kingdom).
The same protocol was followed to produce and characterize liposomes with other lipid compositions. DOPC (10 mg/mL, 400 μL), POPC (10 mg/mL, 100 μL), and cholesterol (5 mg/mL, 50/100 μL for 10%/20% mole of cholesterol, respectively) were combined, dried, and rehydrated with probe solution in scintillation vials. Brain polar lipid extract (25 mg/mL, 200 μL) or E. coli polar lipid extract (25 mg/mL, 200 μL) were dried and rehydrated with probe solution in scintillation vials.
CuSO4 (4 mg) was dissolved in DI H2O (500 μL, 50 mM), L-ascorbic acid (8.8 mg) was dissolved in PBS (500 μL, 100 mM), TBTA (2.7 mg) was dissolved in DMSO (509 μL, 10 mM), and mPEG17/mPEG8/mPEG4/PEG4s/propargyl amine/Cyc1–4 stock solutions (50 mM, with the purity > 95% by HPLC analysis) were prepared in DMSO, and CF-N3 was dissolved in DMSO (2 mM). Fluorogenic CuAAC reaction premixture was prepared by combining CuSO4 (10 μL) and TBTA (8 μL) in PBS (982 μL). Alkyne analytes were diluted (0.1 mM in CuAAC reaction premixture +2% DMSO). Free probe solution was prepared with CF-N3 (4 μM) and L-ascorbic acid (10 mM) in PBS buffer. Alkyne analyte in CuAAC premixture (5 μL) or CuAAC premixture +2% DMSO (5 μL) blank sample was combined with liposome (5 μL) or free probe solution (5 μL) in microtiter plate wells (384-well, Greiner, Thermo Scientific). Transient assay fluorescence (λex/λem = 488/530 nm) was detected using a multimode plate reader (CLARIOstar, BMG). Fluorescence fold gain was calculated by dividing the sample fluorescence by blank fluorescence. Initial velocities (V0) were obtained by linear regression analysis of the fluorescence fold gain after the initial lag period.
Assays were assembles as described above, combining liposomal probe (5 μL; 4 μ M CF-N3, 10 mM ascorbic acid, E. coli lipid SUV) with alkyne sample (5 μL) but with varying concentrations of mPEG4, mPEG8, mPEG17, and PEG4s (0.0001/0.001/0.005/0.01/0.05/0.1/0.5/1/5 mM) or Cyc1–4 (0.0001/0.001/0.005/0.01/0.05/0.1/0.5 mM). Broken liposomal V0 was obtained by combining liposomal probe (5 μL) with Triton X-100 solution (0.42 μL, 10% w/v), then adding the highest concentration sample for each alkyne (5 μL; 0.5 mM Cyc1–4 or 5 mM PEG samples). Transient assay fluorescence (λex/λem = 488/530 nm) was detected using a multimode plate reader (CLARIOstar). Each [alkyne] V0 was divided by the corresponding broken liposome maximum [alkyne] V0,broken. These normalized data were fit to a sigmoid to determine the [alkyne] at which V0/V0,broken was 50% maximum (PC50).

[2] = Parallel artificial membrane permeability assay (PAMPA), egg lecithin in dodecane; details: for Permeability class of control alkynes: control alkynes' permeabilities measured previously (ref 38) or via PAMPA (SI Table S1)
Description: A modified PAMPA was used for compound permeability measurements and was performed by Pharmaron. Briefly, alkyne stock solution (1 mM in DMSO) was diluted (50 μM final in PBS, pH 7.4). The lipid solution (1.8% w/v egg lecithin in dodecane, 5 μL spotting volume) was added to each acceptor well of the multiscreen-IP filter plate. PBS (300 μL) was added to all wells of the acceptor plate, and diluted alkyne stock (300 μL) was added to the wells of the donor plate in triplicate. The plate was assembled and incubated (16 h, 37 °C). An aliquot of donor well sample (2.5 μL) was diluted in PBS (47.5 μL), and an aliquot of the acceptor well (50 μL) was transferred to a 96-well analysis plate. Internal standard (100 nM alprazolam, 200 nM caffeine, 200 nM diclofenac in 100% MeOH) was added to all samples. Samples were vortexed and centrifuged (20 min, 3220g), then analyzed by LC-MS/MS.
The effective permeability (Pe) was calculated as [drawing 1] 1 [drawing 2] 2 where VD is the donor compartment volume (0.3 mL), VA is the acceptor compartment volume (0.3 mL), A is the filter area (0.24 cm^2), and t is the time (16 h).

[3] = Microfluidic droplet-scale liposomal permeation assay of photocleaved control beads; details: photocleaved from control beads on-chip by UV, E. coli polar lipid SUVs, 9% dextran
Description: Microfluidic droplet-based screening was performed in a UV-free room as previously described.[37],[47] Briefly, perfluorous oil phase (Novec 7500) with stabilizer (4% Pico-Surf) was loaded into a syringe (1 mL, BD Tuberculin, BD Medical, Franklin Lakes, NJ) fitted with blunt-end needle (30 gauge QuantX, Fisnar, Germantown, WI) and connected to the microfluidic device OIL1 inlet via Tygon microbore tubing (0.01” I.D. × 0.03” O.D. × I.D., United States Plastic Corp.). Aqueous inputs (AQ1 and AQ2, see below) were loaded into the syringes and connected to AQ inlets of the microfluidic device. Novec 7500 was loaded into syringes (10 mL) and similarly connected to the device via Tygon microbore tubing as spacing oil (OIL2) and flow focusing oil (OIL3). The incubation channel was primed with Novec 7500 by filling from the OIL2 and OIL3 inputs before initiating flows from OIL1 and AQ inlets. OIL and AQ flows were driven by syringe pumps (Legato 101, KD Scientific, Holliston, MA): AQ1 (400 nL/min) AQ2 (400 nL/min), OIL1 (500 nL/min), OIL2 (16 μ L/min), and OIL3 (6 μL/min). […]
Fluorescence data were acquired using a custom confocal laser-induced fluorescence detection system. Droplets were detected based on internal standard (cTMR) signal in PMT 2 as previously described.[36] CF-N3 probe fluorescence was detected in PMT 1. […] Once a droplet was detected, the average PMT 1 signal was calculated. […]

[4] = multiple SUV lipid formulations

Compound | Permeability class of control alkynes [2] | Permeation in liposomal permeation assay (in words) [1, 4] | further results
C#CC[C@H](NC(=O)[C@H](Cc1c[nH]cn1)NC(=O)[C@H](Cc1c[nH]c2ccccc12)NC(=O)[C@@H](NC(=O)[C@H](Cc1c[nH]cn1)NC(=O)[C@H](Cc1ccccc1)NC(=O)[C@H]1CSCc2ccccc2CSC[C@@H](NC(=O)[C@@H](N)C(C)C)C(=O)N[C@@H](CC(N)=O)C(=O)N[C@@H](C)C(=O)N1)[C@@H](C)CC)C(N)=O [DD5o] (H-V[dC]NA[dC]FHIWH[Pra]-NH2; linker 2-5 via oXylylene) | – | – | Permeation in liposomal permeation assay (in words) ([1]; DOPG vesicles, PPA and PEG4s as controls (SI Figure S5)): permeable
C#CCOCCOCCOCCOCCS(=O)(=O)O [PEG4s, propargyl-PEG4-sulfonic acid] | impermeable | – | –
C#CCN [PPA, propargylamine] | permeable | – | Lag before reaching steady V0 in reaction with liposomal CF-N3 ([1]; CF-N3-loaded DOPC-POPC SUVs): ~10 min; Permeation in liposomal assay: reaction with liposomal CF-N3 (in words) ([1]; CF-N3-loaded DOPC-POPC SUVs): reacted
C#CCNC(=O)C(N)C(C)C (stereo not drawn) [PPA–V, valine-N-propargylamide] | – | – | Permeation in droplet-scale liposomal permeation assay (in words) [3]: permeable
C#CCOCCOCCOCCOC [mPEG4, m-PEG4-propargyl] | – | readily permeated | –
C#CCOCCOCCOCCOCCOCCOCCOCCOC [mPEG8, m-PEG8-propargyl] | – | readily permeated | –
C#CCOCCOCCOCCOCCOCCOCCOCCOCCOCCOCCOCCOCCOCCOCCOCCOCCOC [mPEG17, propargyl-PEG17-methane] | impermeable | largely impermeable | Papp at 16 h, 50 μM ([2]; egg lecithin PAMPA, 50 μM, PBS pH 7.4, 16 h, 37 °C, read-out: PAMPA Pe): > 0.004 ×10⁻⁶ cm/s; Permeation in liposomal assay: reaction with liposomal CF-N3 (in words) ([1]; CF-N3-loaded DOPC-POPC SUVs): undetectable
